ChEMBL document CHEMBL1201862, “PubChem BioAssay data set” (2004)
Activity calls are given as the source filed them. Cut-off read from the data, not from the text of the source, for most assays here: actives have a measured EC50 and inactives only a lower limit.

How the values were obtained:
Vero = test: Vero E6 cell cytotoxicity, SAR follow-up, cytotoxicity control for West Nile virus antiviral project, synthesized analogs (AID 2244); type: functional; details: Chlorocebus sabaeus
[1] = inhibitors of firefly luciferase expression or activity, dose response, H4 neuroglioma cells, luminescence (AID 1990); type: functional, cell-based
BJ [2] = test: cytotoxicity toward BJ-TERT fibroblasts, dose response, cell-based, RAS-independent, luminescence (AID 1933); type: functional; details: Homo sapiens
[3] = Luminescence Cell-Based Dose Response HTS to Identify Inhibitors of 5'UTR Stem-Loop Driven Prion Protein mRNA Translation in H4 Neuroglioblastoma Cells. [Related pubchem assays: 1827 (Project Summary), 1813 (Primary HTS)]; type: functional
[4] = inhibitors of SNCA 5'UTR-driven reporter translation, confirmation, H4 neuroglioma cells, luminescence (AID 1988); type: functional, cell-based
[5] = target: T1, Alkaline phosphatase, tissue-nonspecific isozyme (Homo sapiens, UniProt P05186)
T1 sequence (P05186 whole entry): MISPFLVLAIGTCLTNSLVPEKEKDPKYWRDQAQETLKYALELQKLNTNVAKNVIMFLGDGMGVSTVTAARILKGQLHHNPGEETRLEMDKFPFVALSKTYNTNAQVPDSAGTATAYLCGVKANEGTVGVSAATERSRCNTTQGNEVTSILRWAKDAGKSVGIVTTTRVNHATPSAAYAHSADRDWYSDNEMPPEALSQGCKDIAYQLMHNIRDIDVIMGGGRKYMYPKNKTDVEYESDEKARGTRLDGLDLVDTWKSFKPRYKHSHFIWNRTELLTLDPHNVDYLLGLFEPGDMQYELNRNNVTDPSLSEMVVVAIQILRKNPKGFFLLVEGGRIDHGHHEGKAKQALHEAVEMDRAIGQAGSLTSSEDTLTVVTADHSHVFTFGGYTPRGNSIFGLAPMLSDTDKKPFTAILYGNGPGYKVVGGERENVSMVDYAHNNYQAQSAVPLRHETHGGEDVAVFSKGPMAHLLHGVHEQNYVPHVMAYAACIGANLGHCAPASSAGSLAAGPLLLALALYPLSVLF

BJ [6] = test: cells; type: functional, cell-based; details: Homo sapiens
BJ [7] = test: cytotoxicity toward BJ-TERT-LT-ST fibroblasts, dose response, cell-based, RAS-independent, luminescence (AID 1935); type: functional; details: Homo sapiens;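 note: BJ fibroblasts immortalized with TERT plus LT and ST oncogenes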
[8] = cytotoxicity toward DRD oncogenic fibroblasts, dose response, cell-based, non-viral oncogenic, luminescence (AID 1934); type: functional; details: Homo sapiens
[9] = luciferase reporter signal reduction – luminescence, H4-C neuroglioblastoma cells, dose response (AID 2458); type: functional, cell-based;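 note: H4 neuroglioblastoma cells stably carrying a luciferase reporter gene fusion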
cells = type: functional, cell-based
[10] = Luminescence-based dose response cell-based high throughput screening assay for cytotoxic compounds using the IEC-6 intestinal epithelial cell line. [Related pubchem assays: 1858 (Summary AID.), 1825 (Counterscreen.), 1907 (Confirmation screen.)]; type: functional
[11] = inhibitors of SNCA 5'UTR-driven translation, confirmation, luminescence, H4 neuroglioblastoma cells, dose confirmation (AID 2454); type: functional, cell-based;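 note: H4 neuroglioblastoma cells carrying an alpha-synuclein 5'UTR luciferase reporter; potency for inhibition of the luciferase signal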
BJ [12] = test: cytotoxicity toward Ras-transformed BJeLR fibroblasts, dose response, cell-based, alamar blue fluorescence, cherrypicked samples (AID 2631); type: functional; details: Homo sapiens;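 note: confirmatory dose-response assay in RAS-dependent BJ fibroblasts engineered with TERT, LT and ST, with cytotoxicity read by fluorescence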
[13] = target: Luciferin 4-monooxygenase (Photinus pyralis, UniProt P08659); test: Counter Screen for Luciferase-based Assay Positives. [Related pubchem assays: 620, 618, 411 ]
Chain of Luciferin 4-monooxygenase (P08659 whole entry): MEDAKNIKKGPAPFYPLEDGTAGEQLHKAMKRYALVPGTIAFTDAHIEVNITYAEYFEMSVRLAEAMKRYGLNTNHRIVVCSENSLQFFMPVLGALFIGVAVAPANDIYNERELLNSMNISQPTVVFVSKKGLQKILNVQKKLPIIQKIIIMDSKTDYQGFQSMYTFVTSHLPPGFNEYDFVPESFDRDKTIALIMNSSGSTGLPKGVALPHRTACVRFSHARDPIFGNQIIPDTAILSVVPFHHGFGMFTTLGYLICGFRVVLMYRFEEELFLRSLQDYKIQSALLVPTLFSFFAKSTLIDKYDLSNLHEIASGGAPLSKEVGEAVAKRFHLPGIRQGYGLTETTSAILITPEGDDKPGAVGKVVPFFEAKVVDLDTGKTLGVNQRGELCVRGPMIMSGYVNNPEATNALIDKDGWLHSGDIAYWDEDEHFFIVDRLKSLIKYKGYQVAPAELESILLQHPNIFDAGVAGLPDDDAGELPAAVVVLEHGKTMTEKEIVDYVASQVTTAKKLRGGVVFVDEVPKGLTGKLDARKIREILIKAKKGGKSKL

HT-1080 = test: cytotoxicity in HT1080 fibrosarcoma cells, cell-based, fluorescence readout (AID 620); type: functional; details: Homo sapiens
HEK293 = test: inhibitors of LMP1-driven NF-kB reporter, dose response, cell-based, HEK293, luciferase, cherry-pick (AID 588343); type: functional; details: Homo sapiens
[14] = A549 cell cytotoxicity, dose response, cytotoxicity control, plate reader, cherry-pick, antagonist series (AID 743412); type: functional, cell-based
[15] = HepG2 cell cytotoxicity, dose response, cytotoxicity control, plate reader, cherry-pick, antagonist series (AID 743416); type: functional, cell-based
[16] = LGR2 antagonists, dose response, cell-based, HEK293, CRE-luciferase reporter, cherry pick, set 2 (AID 743343); type: functional;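 note: transfected cells were stimulated with diluted bursicon conditioned medium after compound addition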
[17] = MC4R antagonists, dose response, counter-screen for LGR2 antagonist project, cell-based, plate reader, cherry pick (AID 743444); type: functional;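 note: transfected HEK 293 cells stimulated with alpha-MSH peptide; potency of inhibitors of the alpha-MSH evoked signal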
[18] = HEK293 cell cytotoxicity, dose response, cytotoxicity control, plate reader, cherry-picked samples (AID 743446); type: functional, cell-based
HeLa = test: HeLa cell cytotoxicity, dose response, cytotoxicity control, 24 h, cherry-picked samples (AID 504726); type: functional, cell-based; details: Homo sapiens;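 note: potency for cytotoxicity as loss of luminescence signal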
Caspase-6 = Caspase-6 (Homo sapiens, UniProt P55212); test: human caspase-6 inhibitors, dose response, biochemical, VEID-R110 fluorescence, cherry-pick (AID 720632)
Chain of Caspase-6 (P55212 24-179 limits assumed): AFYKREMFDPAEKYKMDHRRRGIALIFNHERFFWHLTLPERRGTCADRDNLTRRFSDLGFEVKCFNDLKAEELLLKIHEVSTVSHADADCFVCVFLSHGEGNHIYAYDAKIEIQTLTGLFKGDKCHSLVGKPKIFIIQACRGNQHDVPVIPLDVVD
Chain of Caspase-6 (P55212 194-293 limits assumed): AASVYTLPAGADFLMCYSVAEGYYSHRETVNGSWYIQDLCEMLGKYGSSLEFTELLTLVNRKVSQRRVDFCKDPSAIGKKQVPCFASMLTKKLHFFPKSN

[19] = target: T2, Histone-lysine N-methyltransferase NSD2 (Homo sapiens, UniProt O96028); type: biochemical
T2 sequence (O96028 whole entry): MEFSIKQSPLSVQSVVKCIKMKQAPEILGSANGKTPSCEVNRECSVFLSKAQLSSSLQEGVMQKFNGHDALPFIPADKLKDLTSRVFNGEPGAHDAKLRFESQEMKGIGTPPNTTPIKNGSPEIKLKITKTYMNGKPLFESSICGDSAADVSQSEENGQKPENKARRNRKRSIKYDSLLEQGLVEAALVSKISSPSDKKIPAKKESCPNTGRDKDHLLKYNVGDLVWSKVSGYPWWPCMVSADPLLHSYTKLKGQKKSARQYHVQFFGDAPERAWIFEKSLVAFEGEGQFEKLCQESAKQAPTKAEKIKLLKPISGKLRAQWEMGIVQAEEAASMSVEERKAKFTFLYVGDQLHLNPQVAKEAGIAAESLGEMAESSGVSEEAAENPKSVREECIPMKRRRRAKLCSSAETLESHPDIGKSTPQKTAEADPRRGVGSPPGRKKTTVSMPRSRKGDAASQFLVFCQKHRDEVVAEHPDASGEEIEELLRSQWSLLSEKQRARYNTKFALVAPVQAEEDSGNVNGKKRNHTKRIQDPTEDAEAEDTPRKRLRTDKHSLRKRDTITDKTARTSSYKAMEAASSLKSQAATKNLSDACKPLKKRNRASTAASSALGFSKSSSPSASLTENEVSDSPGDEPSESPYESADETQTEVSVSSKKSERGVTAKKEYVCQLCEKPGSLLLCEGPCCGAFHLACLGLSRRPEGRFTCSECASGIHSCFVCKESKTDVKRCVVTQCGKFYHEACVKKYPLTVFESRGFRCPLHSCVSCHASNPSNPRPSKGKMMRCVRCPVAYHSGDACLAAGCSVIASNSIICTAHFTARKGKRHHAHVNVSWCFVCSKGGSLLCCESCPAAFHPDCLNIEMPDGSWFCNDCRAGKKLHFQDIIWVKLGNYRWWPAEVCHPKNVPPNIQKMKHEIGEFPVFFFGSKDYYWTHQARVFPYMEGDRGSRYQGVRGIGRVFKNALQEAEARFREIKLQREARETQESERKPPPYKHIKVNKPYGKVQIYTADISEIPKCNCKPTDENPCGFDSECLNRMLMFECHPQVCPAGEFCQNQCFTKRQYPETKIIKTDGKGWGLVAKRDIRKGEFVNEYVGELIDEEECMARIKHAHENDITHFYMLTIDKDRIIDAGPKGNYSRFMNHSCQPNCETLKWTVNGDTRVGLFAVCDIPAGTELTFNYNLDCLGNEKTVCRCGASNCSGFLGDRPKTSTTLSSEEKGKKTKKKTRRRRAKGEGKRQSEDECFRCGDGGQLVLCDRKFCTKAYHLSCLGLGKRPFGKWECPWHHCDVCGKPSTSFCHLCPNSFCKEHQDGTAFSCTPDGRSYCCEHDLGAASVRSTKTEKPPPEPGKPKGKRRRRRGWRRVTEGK
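Throughout, for IC50: cell viability measured after two days of compound exposure.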

O=C(Nc1nc(-c2ccc(Cl)cc2)cs1)c1ccccc1Cl
CC50 (Vero): > 40 µM (active)

COc1cccc2sc(Nc3nc4ccc(NC(C)=O)cc4s3)nc12
EC50 [1]: > 120 µM (not active)
EC50 (BJ [2]): 67.8 µM (active)
EC50 [3]: 12.6 µM (active)
EC50 [4]: 10.7 µM (active)
EC50 [5]: > 100 µM (not active)
EC50 (BJ [6]): 28.2 µM (active)
EC50 (BJ [7]): > 150 µM (not active)
EC50 [8]: 30 µM (active)

Cc1cccc2cc(C#N)c(SCC(=O)N3CC(=O)Nc4ccccc43)nc12
EC50 [9]: 1.59 µM (active)
EC50 (BJ [2]): 0.583 µM (inconclusive)
EC50 (cells): 2.36 µM (active)
EC50 [4]: < 0.1 µM (active)
EC50 (BJ [6]): 18 µM (active)
IC50 [10]: 0.58 µM (active)
EC50 (BJ [7]): 0.46 µM (active)
EC50 [8]: 0.804 µM (active)
EC50 [11]: 1.42 µM (active)
EC50 (BJ [12]): < 0.104 µM (active)

O=C(Nc1ccc(CN2CCOCC2)cc1)c1cc2ccccn2n1
EC50 [13]: 71.5 µM (active)
EC50 (HT-1080): > 50 µM (not active)
AC50 (HEK293): 3.01 µM (active)
AC50 [14]: > 52 µM (inactive)
AC50 [15]: > 52 µM (inactive)
AC50 [16]: 2.6 µM (active)
AC50 [17]: 5.82 µM (active)
AC50 [18]: 36 µM (active)

CCN(C(=O)COC(=O)c1ccc([N+](=O)[O-])o1)C1CCCCC1
AC50 (HeLa): > 350 µM (inactive)
AC50 (Caspase-6): 34.1 µM (active)
AC50 [19]: > 20 µM (inactive)
